Activity calls are given as the source filed them. Rule as the data show it, for most assays here: actives have a measured Kd and inactives only a lower limit.
Tests used:
[1] = target: T1, Phosphatidylinositol 5-phosphate 4-kinase type-2 gamma (Homo sapiens, UniProt Q8TBX8)
T1 sequence (Q8TBX8 whole entry): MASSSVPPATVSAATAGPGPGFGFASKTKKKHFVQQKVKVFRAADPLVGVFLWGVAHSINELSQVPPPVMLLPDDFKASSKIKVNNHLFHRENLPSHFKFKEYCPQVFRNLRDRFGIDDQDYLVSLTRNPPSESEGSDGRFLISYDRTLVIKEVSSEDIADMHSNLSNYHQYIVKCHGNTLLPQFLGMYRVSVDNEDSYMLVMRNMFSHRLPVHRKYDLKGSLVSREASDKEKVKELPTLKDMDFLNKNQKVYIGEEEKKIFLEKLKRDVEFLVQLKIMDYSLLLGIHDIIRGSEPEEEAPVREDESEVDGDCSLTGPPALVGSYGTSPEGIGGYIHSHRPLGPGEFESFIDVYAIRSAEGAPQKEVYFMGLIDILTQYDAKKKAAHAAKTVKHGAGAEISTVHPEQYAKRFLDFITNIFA

[2] = target: Tyrosine-protein kinase BTK (Homo sapiens, UniProt Q06187)
Sequence of Tyrosine-protein kinase BTK (Q06187 whole entry): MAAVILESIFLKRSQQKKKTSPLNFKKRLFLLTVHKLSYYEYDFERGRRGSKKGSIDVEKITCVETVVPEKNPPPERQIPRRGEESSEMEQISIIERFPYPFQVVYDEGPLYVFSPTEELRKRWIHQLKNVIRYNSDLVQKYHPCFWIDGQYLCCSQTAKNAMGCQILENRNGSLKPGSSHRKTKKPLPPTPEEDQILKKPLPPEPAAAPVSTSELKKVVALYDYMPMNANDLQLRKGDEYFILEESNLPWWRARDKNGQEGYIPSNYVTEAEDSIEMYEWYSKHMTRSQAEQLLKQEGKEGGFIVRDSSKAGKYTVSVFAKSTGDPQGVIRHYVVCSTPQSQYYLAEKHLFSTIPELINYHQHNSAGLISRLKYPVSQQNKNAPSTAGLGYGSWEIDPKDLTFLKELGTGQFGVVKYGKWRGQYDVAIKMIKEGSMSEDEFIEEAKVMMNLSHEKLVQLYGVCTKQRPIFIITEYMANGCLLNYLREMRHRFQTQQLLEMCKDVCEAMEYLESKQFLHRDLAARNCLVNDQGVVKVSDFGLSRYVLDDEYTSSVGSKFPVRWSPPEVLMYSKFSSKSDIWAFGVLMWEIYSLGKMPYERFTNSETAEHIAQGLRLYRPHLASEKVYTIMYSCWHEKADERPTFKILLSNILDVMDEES

[3] = target: Mitogen-activated protein kinase 3 (Homo sapiens, UniProt P27361)
Sequence of Mitogen-activated protein kinase 3 (P27361 whole entry): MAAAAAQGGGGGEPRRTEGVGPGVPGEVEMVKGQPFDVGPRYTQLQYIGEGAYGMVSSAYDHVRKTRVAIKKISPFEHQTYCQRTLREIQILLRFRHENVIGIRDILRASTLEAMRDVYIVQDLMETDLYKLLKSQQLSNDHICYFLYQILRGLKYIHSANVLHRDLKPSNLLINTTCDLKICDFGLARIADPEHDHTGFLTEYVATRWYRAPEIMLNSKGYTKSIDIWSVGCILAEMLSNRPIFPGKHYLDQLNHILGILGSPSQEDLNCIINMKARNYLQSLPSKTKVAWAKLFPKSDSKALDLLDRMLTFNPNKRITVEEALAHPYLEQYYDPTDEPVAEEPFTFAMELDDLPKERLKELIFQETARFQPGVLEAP

[4] = target: T2, Non-receptor tyrosine-protein kinase TNK1 (Homo sapiens, UniProt Q13470)
T2 sequence (Q13470 whole entry): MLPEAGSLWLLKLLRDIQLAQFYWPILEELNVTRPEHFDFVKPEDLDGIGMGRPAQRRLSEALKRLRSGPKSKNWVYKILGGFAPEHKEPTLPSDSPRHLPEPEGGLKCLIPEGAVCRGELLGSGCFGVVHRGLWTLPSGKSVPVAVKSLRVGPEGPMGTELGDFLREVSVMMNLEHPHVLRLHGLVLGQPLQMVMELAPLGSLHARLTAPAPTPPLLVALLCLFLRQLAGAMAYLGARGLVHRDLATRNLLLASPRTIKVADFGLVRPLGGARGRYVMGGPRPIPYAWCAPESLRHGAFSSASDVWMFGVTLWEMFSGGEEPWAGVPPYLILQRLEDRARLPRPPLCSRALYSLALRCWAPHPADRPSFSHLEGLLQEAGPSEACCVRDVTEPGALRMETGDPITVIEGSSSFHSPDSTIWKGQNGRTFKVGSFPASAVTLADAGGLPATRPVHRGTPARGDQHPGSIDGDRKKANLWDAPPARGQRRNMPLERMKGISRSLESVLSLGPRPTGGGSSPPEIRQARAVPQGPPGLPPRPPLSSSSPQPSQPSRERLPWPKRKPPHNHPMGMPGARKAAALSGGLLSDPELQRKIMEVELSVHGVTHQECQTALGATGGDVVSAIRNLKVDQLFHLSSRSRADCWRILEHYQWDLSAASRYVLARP

[5] = target: Cyclin-dependent kinase 13 (Homo sapiens, UniProt Q14004)
Ephrin type-A receptor 2 = Ephrin type-A receptor 2 (Homo sapiens, UniProt P29317)
Sequence of Ephrin type-A receptor 2 (P29317 whole entry): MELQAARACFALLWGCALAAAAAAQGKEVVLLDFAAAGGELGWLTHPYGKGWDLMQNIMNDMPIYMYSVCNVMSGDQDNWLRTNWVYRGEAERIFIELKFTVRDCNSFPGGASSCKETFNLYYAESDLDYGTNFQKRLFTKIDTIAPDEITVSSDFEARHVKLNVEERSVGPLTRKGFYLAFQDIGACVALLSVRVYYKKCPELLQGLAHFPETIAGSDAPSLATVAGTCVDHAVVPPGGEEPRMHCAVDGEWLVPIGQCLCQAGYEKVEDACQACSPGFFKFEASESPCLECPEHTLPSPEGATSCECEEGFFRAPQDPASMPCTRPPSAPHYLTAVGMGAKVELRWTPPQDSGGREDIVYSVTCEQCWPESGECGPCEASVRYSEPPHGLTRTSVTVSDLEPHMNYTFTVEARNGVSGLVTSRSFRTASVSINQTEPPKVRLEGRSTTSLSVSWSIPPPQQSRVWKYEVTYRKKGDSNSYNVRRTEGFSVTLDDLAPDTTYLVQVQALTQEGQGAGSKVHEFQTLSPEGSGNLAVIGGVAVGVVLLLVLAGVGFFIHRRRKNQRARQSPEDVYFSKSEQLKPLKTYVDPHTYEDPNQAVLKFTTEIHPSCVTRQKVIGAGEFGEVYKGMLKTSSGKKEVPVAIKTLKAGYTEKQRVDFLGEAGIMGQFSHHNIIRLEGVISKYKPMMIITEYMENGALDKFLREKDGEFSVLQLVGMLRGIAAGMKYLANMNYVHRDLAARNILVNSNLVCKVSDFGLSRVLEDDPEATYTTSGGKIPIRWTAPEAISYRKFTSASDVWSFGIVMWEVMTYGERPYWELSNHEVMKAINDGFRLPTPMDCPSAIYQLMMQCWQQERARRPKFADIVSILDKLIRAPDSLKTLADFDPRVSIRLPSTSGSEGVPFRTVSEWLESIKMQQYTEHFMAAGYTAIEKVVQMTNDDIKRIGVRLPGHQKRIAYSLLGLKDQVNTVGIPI

Rab-like protein 3 = target: T3, Rab-like protein 3 (Homo sapiens, UniProt Q5HYI8)
T3 sequence (Q5HYI8 whole entry): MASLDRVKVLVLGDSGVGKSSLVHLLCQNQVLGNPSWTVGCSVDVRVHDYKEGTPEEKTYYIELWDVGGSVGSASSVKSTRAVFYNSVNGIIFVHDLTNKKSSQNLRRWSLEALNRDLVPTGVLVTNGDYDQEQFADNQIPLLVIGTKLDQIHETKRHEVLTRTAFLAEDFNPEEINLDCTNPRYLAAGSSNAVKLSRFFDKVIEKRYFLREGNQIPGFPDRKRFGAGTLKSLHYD

[6] = target: Protein kinase C beta type (Homo sapiens, UniProt P05771)
Sequence of Protein kinase C beta type (P05771 whole entry): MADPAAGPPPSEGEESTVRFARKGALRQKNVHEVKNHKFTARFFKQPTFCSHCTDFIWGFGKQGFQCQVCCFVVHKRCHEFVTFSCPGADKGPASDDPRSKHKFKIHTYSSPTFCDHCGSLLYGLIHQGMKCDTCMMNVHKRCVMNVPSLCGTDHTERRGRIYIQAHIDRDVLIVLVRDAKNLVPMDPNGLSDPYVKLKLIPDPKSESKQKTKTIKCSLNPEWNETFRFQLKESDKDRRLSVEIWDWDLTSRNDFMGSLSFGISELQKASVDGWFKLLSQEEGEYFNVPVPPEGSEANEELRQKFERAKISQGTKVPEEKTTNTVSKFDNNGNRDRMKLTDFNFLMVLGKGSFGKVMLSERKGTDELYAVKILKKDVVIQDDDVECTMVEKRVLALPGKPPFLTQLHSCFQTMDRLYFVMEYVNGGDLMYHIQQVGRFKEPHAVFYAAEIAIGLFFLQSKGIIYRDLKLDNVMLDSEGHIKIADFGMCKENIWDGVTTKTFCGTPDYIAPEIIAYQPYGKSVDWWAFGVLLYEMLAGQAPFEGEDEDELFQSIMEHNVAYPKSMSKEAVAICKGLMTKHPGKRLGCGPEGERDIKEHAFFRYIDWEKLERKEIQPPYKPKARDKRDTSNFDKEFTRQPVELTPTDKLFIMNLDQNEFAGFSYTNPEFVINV

[7] = target: Tyrosine-protein kinase CSK (Homo sapiens, UniProt P41240)
[8] = target: Casein kinase I isoform alpha (Homo sapiens, UniProt P48729)
Sequence of Casein kinase I isoform alpha (P48729 whole entry, canonical isoform): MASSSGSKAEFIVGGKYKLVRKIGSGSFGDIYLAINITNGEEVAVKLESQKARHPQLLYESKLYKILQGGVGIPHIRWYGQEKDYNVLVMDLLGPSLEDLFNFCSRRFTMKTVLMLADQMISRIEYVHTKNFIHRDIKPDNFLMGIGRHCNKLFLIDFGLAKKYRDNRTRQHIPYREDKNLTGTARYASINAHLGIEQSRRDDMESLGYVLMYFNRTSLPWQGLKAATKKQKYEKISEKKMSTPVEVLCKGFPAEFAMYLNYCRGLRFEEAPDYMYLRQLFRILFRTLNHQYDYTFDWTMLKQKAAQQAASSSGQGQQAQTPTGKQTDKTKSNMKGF

[9] = target: Serine/threonine-protein kinase B-raf (Homo sapiens, UniProt P15056)
Sequence of Serine/threonine-protein kinase B-raf (P15056 whole entry): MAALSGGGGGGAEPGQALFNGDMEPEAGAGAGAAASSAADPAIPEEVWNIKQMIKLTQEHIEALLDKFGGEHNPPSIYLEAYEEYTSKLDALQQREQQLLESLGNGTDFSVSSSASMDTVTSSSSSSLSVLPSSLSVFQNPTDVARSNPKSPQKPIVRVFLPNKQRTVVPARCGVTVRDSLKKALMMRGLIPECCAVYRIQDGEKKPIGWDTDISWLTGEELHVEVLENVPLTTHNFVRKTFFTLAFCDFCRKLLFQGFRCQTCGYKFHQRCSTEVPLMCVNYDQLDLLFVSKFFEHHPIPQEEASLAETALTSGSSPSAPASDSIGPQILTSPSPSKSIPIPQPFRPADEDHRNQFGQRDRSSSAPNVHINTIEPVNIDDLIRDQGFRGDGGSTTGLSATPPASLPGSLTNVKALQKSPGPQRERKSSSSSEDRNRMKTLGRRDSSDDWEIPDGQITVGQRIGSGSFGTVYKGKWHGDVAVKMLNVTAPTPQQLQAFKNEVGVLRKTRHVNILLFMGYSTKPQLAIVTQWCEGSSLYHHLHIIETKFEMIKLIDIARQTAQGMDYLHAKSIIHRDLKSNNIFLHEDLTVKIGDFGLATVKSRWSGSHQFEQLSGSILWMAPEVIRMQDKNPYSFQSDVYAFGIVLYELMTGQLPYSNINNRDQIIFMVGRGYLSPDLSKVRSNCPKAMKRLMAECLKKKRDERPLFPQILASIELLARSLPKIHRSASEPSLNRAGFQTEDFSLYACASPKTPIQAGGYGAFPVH

[10] = target: T4, General transcription and DNA repair factor IIH helicase subunit XPD (Homo sapiens, UniProt P18074); settings: read-out: Kd apparent; k-562, colo 205, sk-n-be(2) and mv-4-11
T4 sequence (P18074 whole entry): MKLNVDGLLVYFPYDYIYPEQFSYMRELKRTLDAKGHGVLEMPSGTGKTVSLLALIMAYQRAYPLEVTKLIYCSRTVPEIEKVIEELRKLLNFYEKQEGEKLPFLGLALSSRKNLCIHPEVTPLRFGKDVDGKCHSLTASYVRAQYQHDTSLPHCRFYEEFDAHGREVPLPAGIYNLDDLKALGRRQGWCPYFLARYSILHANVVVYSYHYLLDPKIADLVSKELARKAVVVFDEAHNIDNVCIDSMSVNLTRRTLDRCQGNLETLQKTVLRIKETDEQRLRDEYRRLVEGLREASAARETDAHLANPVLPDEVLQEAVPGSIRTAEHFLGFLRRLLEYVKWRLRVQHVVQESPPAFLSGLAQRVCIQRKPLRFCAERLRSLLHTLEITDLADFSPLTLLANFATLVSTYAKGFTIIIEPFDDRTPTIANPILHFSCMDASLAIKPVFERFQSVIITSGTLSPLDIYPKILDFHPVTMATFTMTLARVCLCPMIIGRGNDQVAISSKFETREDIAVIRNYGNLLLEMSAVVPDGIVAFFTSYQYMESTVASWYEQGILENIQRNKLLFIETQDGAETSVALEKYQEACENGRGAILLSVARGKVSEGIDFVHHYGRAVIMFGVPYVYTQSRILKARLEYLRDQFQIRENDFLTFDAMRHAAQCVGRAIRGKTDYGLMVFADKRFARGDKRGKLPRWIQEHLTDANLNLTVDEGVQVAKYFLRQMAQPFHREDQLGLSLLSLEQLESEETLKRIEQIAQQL

[11] = target: Fibroblast growth factor receptor 1 (Homo sapiens, UniProt P11362)
Sequence of Fibroblast growth factor receptor 1 (P11362 whole entry): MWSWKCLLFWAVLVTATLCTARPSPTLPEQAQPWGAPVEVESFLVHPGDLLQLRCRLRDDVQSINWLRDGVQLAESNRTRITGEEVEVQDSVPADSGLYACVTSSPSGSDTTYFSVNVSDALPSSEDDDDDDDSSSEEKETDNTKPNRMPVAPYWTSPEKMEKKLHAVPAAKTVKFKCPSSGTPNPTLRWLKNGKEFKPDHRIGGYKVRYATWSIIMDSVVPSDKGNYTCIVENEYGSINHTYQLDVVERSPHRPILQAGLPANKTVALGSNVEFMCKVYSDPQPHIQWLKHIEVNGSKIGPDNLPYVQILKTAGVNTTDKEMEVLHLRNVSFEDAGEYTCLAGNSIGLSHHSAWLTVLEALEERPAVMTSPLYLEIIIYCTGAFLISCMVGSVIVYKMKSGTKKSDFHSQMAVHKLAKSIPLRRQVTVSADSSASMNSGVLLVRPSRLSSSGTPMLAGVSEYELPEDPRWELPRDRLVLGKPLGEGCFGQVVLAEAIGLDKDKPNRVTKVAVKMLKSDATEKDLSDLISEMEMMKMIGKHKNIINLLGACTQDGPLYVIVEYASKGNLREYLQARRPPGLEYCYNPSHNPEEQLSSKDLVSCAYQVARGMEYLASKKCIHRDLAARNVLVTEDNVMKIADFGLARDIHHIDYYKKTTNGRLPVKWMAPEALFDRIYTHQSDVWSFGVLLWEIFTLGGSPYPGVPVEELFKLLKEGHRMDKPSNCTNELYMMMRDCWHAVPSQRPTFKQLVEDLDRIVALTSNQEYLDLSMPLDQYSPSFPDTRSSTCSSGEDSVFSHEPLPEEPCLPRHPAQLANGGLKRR
Also: in the data inactive means no Kd found up to 30 µM.

Kd [1] | Kd [2] | Kd [3] | Kd [4] | Kd [5] | Kd (Ephrin type-A receptor 2) | Kd (Rab-like protein 3) | Kd [6] | Kd [7] | Kd [8] | Kd [9] | Kd [10] | Kd [11] | Structure (SMILES)
> 30 µM (inactive) | > 30 µM (inactive) | > 30 µM (inactive) | > 30 µM (inactive) | > 30 µM (inactive) | 0.832 µM (active) | > 30 µM (inactive) | > 30 µM (inactive) | > 30 µM (inactive) | > 30 µM (inactive) | – | – | – | CNC(=O)c1cc(Oc2ccc(NC(=O)Nc3ccc(Cl)c(C(F)(F)F)c3)c(F)c2)ccn1 [REGORAFENIB]
> 30 µM (inactive) | > 30 µM (inactive) | > 30 µM (inactive) | – | > 30 µM (inactive) | – | – | > 30 µM (inactive) | > 30 µM (inactive) | – | > 30 µM (inactive) | > 30 µM (inactive) | – | Cc1cc(Nc2cc(N3CCN(C)CC3)nc(/C=C/c3ccccc3)n2)n[nH]1 [ENMD-2076]
> 30 µM (inactive) | > 30 µM (inactive) | > 30 µM (inactive) | > 30 µM (inactive) | > 30 µM (inactive) | > 30 µM (inactive) | > 30 µM (inactive) | > 30 µM (inactive) | > 30 µM (inactive) | > 30 µM (inactive) | – | > 30 µM (inactive) | > 30 µM (inactive) | CCCS(=O)(=O)Nc1ccc(F)c(C(=O)c2c[nH]c3ncc(-c4ccc(Cl)cc4)cc23)c1F [VEMURAFENIB]
> 30 µM (inactive) | – | > 30 µM (inactive) | > 30 µM (inactive) | > 30 µM (inactive) | > 30 µM (inactive) | > 30 µM (inactive) | > 30 µM (inactive) | > 30 µM (inactive) | > 30 µM (inactive) | – | > 30 µM (inactive) | > 30 µM (inactive) | COc1cc2nccc(Oc3ccc(NC(=O)NC4CC4)c(Cl)c3)c2cc1C(N)=O [LENVATINIB]
– | – | – | – | – | – | > 30 µM (inactive) | > 30 µM (inactive) | – | – | – | > 30 µM (inactive) | – | Nc1nc(N)c2nc(-c3cccc(O)c3)c(-c3cccc(O)c3)nc2n1 [TG100-115]
– | – | – | – | – | – | > 30 µM (inactive) | 0.31 µM (active) | – | – | – | > 30 µM (inactive) | – | CCn1c(-c2nonc2N)nc2c(C#CC(C)(C)O)ncc(OC[C@H]3CCCNC3)c21 [GSK-690693]
– | – | – | – | – | – | > 30 µM (inactive) | > 30 µM (inactive) | – | – | – | > 30 µM (inactive) | – | CN1CCN(c2ccc3nc(-c4c(N)c5c(F)cccc5[nH]c4=O)[nH]c3c2)CC1 [DOVITINIB]
> 30 µM (inactive) | > 30 µM (inactive) | > 30 µM (inactive) | > 30 µM (inactive) | > 30 µM (inactive) | > 30 µM (inactive) | > 30 µM (inactive) | > 30 µM (inactive) | > 30 µM (inactive) | 3.33 µM (active) | – | > 30 µM (inactive) | > 30 µM (inactive) | COC(=O)N[C@@H](C)CNc1nccc(-c2cn(C(C)C)nc2-c2cc(Cl)cc(NS(C)(=O)=O)c2F)n1 [ENCORAFENIB]
> 30 µM (inactive) | – | > 30 µM (inactive) | > 30 µM (inactive) | 0.021 µM (active) | > 30 µM (inactive) | > 30 µM (inactive) | > 30 µM (inactive) | > 30 µM (inactive) | – | > 30 µM (inactive) | – | – | CCc1cnn2c(NCc3ccc[n+]([O-])c3)cc(N3CCCC[C@H]3CCO)nc12 [DINACICLIB]
0.067 µM (active) | – | > 30 µM (inactive) | > 30 µM (inactive) | – | – | > 30 µM (inactive) | > 30 µM (inactive) | > 30 µM (inactive) | – | > 30 µM (inactive) | > 30 µM (inactive) | – | Cc1nc(N)sc1-c1ccnc(Nc2ccc(N3CCOCC3)cc2)n1 [CYC-116]
> 30 µM (inactive) | – | > 30 µM (inactive) | > 30 µM (inactive) | > 30 µM (inactive) | > 30 µM (inactive) | > 30 µM (inactive) | > 30 µM (inactive) | > 30 µM (inactive) | – | > 30 µM (inactive) | > 30 µM (inactive) | – | OCCn1cc(-c2cnc3nnn(Cc4ccc5ncccc5c4)c3n2)cn1 [PF-04217903]
> 30 µM (inactive) | > 30 µM (inactive) | > 30 µM (inactive) | > 30 µM (inactive) | > 30 µM (inactive) | 0.147 µM (active) | > 30 µM (inactive) | > 30 µM (inactive) | > 30 µM (inactive) | > 30 µM (inactive) | – | > 30 µM (inactive) | – | COc1cc2nccc(Oc3ccc(NC(=O)Nc4cc(C)on4)c(Cl)c3)c2cc1OC [TIVOZANIB]
6.18 µM | > 30 µM (inactive) | > 30 µM (inactive) | > 30 µM (inactive) | > 30 µM (inactive) | 0.09 µM (active) | > 30 µM (inactive) | > 30 µM (inactive) | 2.15 µM (active) | – | 1.14 µM (active) | > 30 µM (inactive) | > 30 µM (inactive) | Cc1ccc(NC(=O)c2ccc(CN3CC[C@H](N(C)C)C3)c(C(F)(F)F)c2)cc1Nc1nccc(-c2cncnc2)n1 [BAFETINIB]
> 30 µM (inactive) | > 30 µM (inactive) | > 30 µM (inactive) | 0.006 µM (active) | > 30 µM (inactive) | – | > 30 µM (inactive) | > 30 µM (inactive) | > 30 µM (inactive) | > 30 µM (inactive) | > 30 µM (inactive) | > 30 µM (inactive) | > 30 µM (inactive) | O=C(O)[C@]1(Cc2cccc(Nc3nccs3)n2)CC[C@@H](Oc2cccc(Cl)c2F)CC1 [MK-5108]
> 30 µM (inactive) | > 30 µM (inactive) | > 30 µM (inactive) | > 30 µM (inactive) | > 30 µM (inactive) | > 30 µM (inactive) | > 30 µM (inactive) | > 30 µM (inactive) | > 30 µM (inactive) | > 30 µM (inactive) | > 30 µM (inactive) | > 30 µM (inactive) | – | COc1cc(CCc2cc(NC(=O)c3ccc(N4C[C@@H](C)N[C@@H](C)C4)cc3)n[nH]2)cc(OC)c1 [AZD-4547]

Structure (SMILES) | Kd [1] | Kd [2] | Kd [3] | Kd [4] | Kd [5] | Kd (Ephrin type-A receptor 2) | Kd (Rab-like protein 3) | Kd [6] | Kd [7] | Kd [8] | Kd [9] | Kd [10] | Kd [11]
O=C(Nc1cccc(Cl)c1)Nc1ncc(CCNc2ncnc3ccsc23)s1 [SNS-314] | – | – | > 30 µM (inactive) | > 30 µM (inactive) | – | – | > 30 µM (inactive) | > 30 µM (inactive) | > 30 µM (inactive) | – | – | > 30 µM (inactive) | –
Cc1cn(-c2cc(NC(=O)c3ccc(C)c(Nc4nccc(-c5cccnc5)n4)c3)cc(C(F)(F)F)c2)cn1 [NILOTINIB] | – | – | – | – | – | – | > 30 µM (inactive) | > 30 µM (inactive) | – | – | – | > 30 µM (inactive) | –
